Test results reported in US10570117B2, “Phenylimidazole compound” (Otsuka Pharmaceutical Factory, Inc., priority 2015, dated 2020).
Values after ≈ are worked out from the molar mass of the structure shown. Read-outs that look alike come from different tables or passages of the source.

Key:
[1] = tested on: lipoprotein lipase (LPL) gene; experiment: LPL mRNA elevating action (RT-PCR quantification of LPL mRNA in C2Cl2 cells); format: cell-based, mouse; conditions: Mus musculus, 24 h, compound 10 μM, ratio relative to the amount of LPL mRNA in cells with DMSO only, read-out: Rate of increase in LPL mRNA
In short: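 Read-out is LPL mRNA relative to vehicle (DMSO = 1), measured by reverse transcription and 20-cycle real-time PCR. Cells were the mouse striated-muscle line C2Cl2, treated 24 h with 10 μM compound in DMEM containing 10% FBS.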

[2] = Solubility in gastric juice or intestinal juice model fluid (precipitation method using DMSO); format: physicochemical; conditions: room temperature
In short: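 Dissolved amount (μg/mL) quantified by UV of filtrate versus pre-made calibration curves. Precipitation approach: DMSO solutions spiked into pH 1.2 (JP 1st fluid) or pH 6.8 (JP 2nd fluid) medium, shaken at room temperature for 24 h before insolubles were filtered off.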

[3] = pH 1.2, simulated gastric fluid, kinetic from dmso stock, 1st fluid for Disintegration Test of Japanese Pharmacopoeia (pH: 1.2), read-out: Solubility (μg/mL) 1st fluid
[4] = pH 6.8, kinetic from dmso stock, 2nd fluid for Disintegration Test of Japanese Pharmacopoeia (pH: 6.8), read-out: Solubility (μg/mL) 2nd fluid

Row | SMILES | fold induction at 10 µM [1] | solubility at 24 h [2, 3] [µg/mL] | solubility at 24 h [2, 4] [µg/mL] | melting point
1 | COc1cc(O)ccc1-c1[nH]c(-c2ccc(F)nc2)nc1Cl [Example 313] | 1.33 | 62.3 (≈ 195 µM) | 5 (≈ 15.6 µM) | 209 to 214 °C (dec.)
2 | COc1cc(OCc2ccc(C(F)(F)F)[n+]([O-])c2)ccc1-c1cnc(-c2ccc(F)nc2)[nH]1 [Example 314] | 1.66 | 50.2 (≈ 109 µM) | 0.9 (≈ 1.95 µM) | 234 to 239 °C
3 | COc1cc(OCc2ccc(C(F)(F)F)[n+]([O-])c2)ccc1-c1[nH]c(-c2ccc(F)nc2)nc1Cl [Example 315] | 2.7 | 1.8 (≈ 3.64 µM) | 2.7 (≈ 5.46 µM) | > 250 °C
4 | COc1cc(OCc2c(F)cc(C(F)(F)F)c[n+]2[O-])ccc1-c1cnc(-c2ccc(F)nc2)[nH]1 [Example 316] | 2.53 | 94.4 (≈ 197 µM) | 4.9 (≈ 10.2 µM) | 162 to 167 °C
5 | COc1cc(OCc2c(F)cc(C(F)(F)F)c[n+]2[O-])ccc1-c1[nH]c(-c2ccc(F)nc2)nc1Cl [Example 317] | 2.9 | 69.1 (≈ 135 µM) | 9.3 (≈ 18.1 µM) | 105 to 110 °C
6 | COc1cc(OCc2c(F)cc(C(F)(F)F)c[n+]2[O-])ccc1-c1[nH]c(-c2ccc(F)nc2)nc1Br [Example 318] | 3.15 | 100 (≈ 180 µM) | 8.7 (≈ 15.6 µM) | 105 to 120 °C
7 | COc1cc(OCc2ncc(C(F)(F)F)cc2F)ccc1-c1[nH]c(-c2ccc(F)nc2)nc1F [Example 319] | 3.74 | 4.7 (≈ 9.78 µM) | 0.5 (≈ 1.04 µM) | 156 to 158 °C
8 | COc1cc(OCc2cnc(Cl)s2)ccc1-c1cnc(-c2ccc(F)nc2)[nH]1 [Example 321] | 1.82 | 69.4 (≈ 166 µM) | 1.9 (≈ 4.56 µM) | 109 to 116 °C
9 | COc1cc(OCc2cc(C(C)C)no2)ccc1-c1cnc(-c2ccc(F)nc2)[nH]1 [Example 322] | 1.55 | 72 (≈ 176 µM) | 1.3 (≈ 3.18 µM) | 227 to 232 °C
10 | COc1cc(-c2cnc(C3CCC(F)(F)CC3)[nH]2)ccc1OCc1ncc(C(F)(F)F)cc1F [Example 323] | 1.72 | 78.3 (≈ 161 µM) | 17 (≈ 35 µM) | 157 to 159 °C
11 | COc1cc(-c2[nH]c(-c3ccc(F)nc3)nc2Cl)ccc1OCc1ncc(C(F)(F)F)cc1F [Example 325] | 2.44 | 4.7 (≈ 9.46 µM) | 1.3 (≈ 2.62 µM) | 165 to 170 °C
12 | COc1cc(-c2[nH]c(C3CCC(F)(F)CC3)nc2Cl)ccc1OCc1ncc(C(F)(F)F)cc1F [Example 326] | 2.63 | 63.7 (≈ 123 µM) | 0.7 (≈ 1.35 µM) | 173 to 176 °C
13 | COc1cc(-c2[nH]c(C3CCC(F)(F)CC3)nc2Br)ccc1OCc1ncc(C(F)(F)F)cc1F [Example 327] | 3.06 | 110 (≈ 194 µM) | 0.7 (≈ 1.24 µM) | 203 to 204 °C
14 | CCOC(C)n1cc(-c2ccc(OCc3ccc(C(F)(F)F)nc3)cc2OC)nc1-c1ccc(F)nc1 (centres unmarked) [Example 328] | 2.41 | 44.2 (≈ 85.6 µM) | 0.4 (≈ 0.774 µM) | 102 to 104 °C
15 | COc1cc(OCc2ccc(C(F)(F)F)nc2)ccc1-c1[nH]c(-c2ccc(F)nc2)nc1I [Example 329] | 2.96 | 5.8 (≈ 10.2 µM) | 13.6 (≈ 23.8 µM) | 195 to 208 °C
16 | CCOC(C)n1c(-c2ccc(F)nc2)nc(-c2ccc(OCc3ccc(C(F)(F)F)nc3)cc2OC)c1I (centres unmarked) [Example 330] | 1.88 | 6.5 (≈ 10.1 µM) | 0.9 (≈ 1.4 µM) | 129 to 131 °C

Row | SMILES | fold induction at 10 µM [1] | solubility at 24 h [2, 3] [µg/mL] | solubility at 24 h [2, 4] [µg/mL] | melting point
17 | COc1cc(OCc2ncc(C(F)(F)F)cc2F)ccc1-c1[nH]c(-c2ccc(F)nc2)nc1C [Example 331] | 2.17 | 94.6 (≈ 199 µM) | 8 (≈ 16.8 µM) | 100 to 105 °C
18 | COc1cc(OCc2ccccc2)ccc1-c1[nH]c(-c2ccc(F)nc2)nc1C [Example 332] | 1.91 | 77.7 (≈ 200 µM) | 3.3 (≈ 8.47 µM) | 169 to 171 °C
19 | COc1cc(O)ccc1-c1[nH]c(-c2ccc(F)nc2)nc1C [Example 333] | 1.22 | 59 (≈ 197 µM) | 5.2 (≈ 17.4 µM) | 154 to 159 °C
20 | COc1cc(OCc2noc(C3CC3)n2)ccc1-c1cnc(-c2ccc(F)nc2)[nH]1 [Example 334] | 1.78 | 76.6 (≈ 188 µM) | 7.8 (≈ 19.1 µM) | 153 to 158 °C
21 | COc1cc(OCc2ncc(C(F)(F)F)cc2F)ccc1-c1cnc(C2CCC(F)(F)CC2)[nH]1 [Example 335] | 2.37 | 93.4 (≈ 192 µM) | 6.6 (≈ 13.6 µM) | 105 to 110 °C
22 | COc1cc(OCc2ncc(C(F)(F)F)cc2F)ccc1-c1[nH]c(C2CCC(F)(F)CC2)nc1Cl [Example 336] | 3.23 | 89.3 (≈ 172 µM) | 0.4 (≈ 0.769 µM) | 172 to 174 °C
23 | COc1cc(OCc2ncc(C(F)(F)F)cc2F)ccc1-c1[nH]c(C2CCC(F)(F)CC2)nc1Br [Example 337] | 3.07 | 110 (≈ 195 µM) | 0.5 (≈ 0.886 µM) | 190 to 191 °C
24 | COc1cc(-c2cnc(C3CCC(F)(F)CC3)[nH]2)ccc1O [Example 339] | 1.32 | > 62 | 58.9 (≈ 191 µM) | 131 to 136 °C
25 | Oc1ccc(-c2cnc(-c3ccc(F)nc3)[nH]2)cc1 [Example 343] | 1.42 | 50 (≈ 196 µM) | 39.2 (≈ 154 µM) | > 270 °C
26 | Fc1ccc(-c2ncc(-c3ccc(OCc4ncc(C(F)(F)F)cc4F)cc3)[nH]2)cn1 [Example 344] | 1.83 | 85.9 (≈ 199 µM) | 4.6 (≈ 10.6 µM) | 174 to 177 °C
27 | Fc1ccc(-c2nc(Br)c(-c3ccc(OCc4ncc(C(F)(F)F)cc4F)cc3)[nH]2)cn1 [Example 345] | 2.39 | < 0.4 | < 0.4 | 155 to 158 °C
28 | COc1cc(OCc2ncc(C(F)(F)F)cc2F)ccc1-c1[nH]c(C2CCC(F)(F)C2)nc1Cl (centres unmarked) [Example 346] | 3.18 | 99.1 (≈ 196 µM) | < 0.4 | 147 to 149 °C
29 | COc1cc(-c2[nH]c(C3CCC(F)(F)C3)nc2Cl)ccc1OCc1ncc(C(F)(F)F)cc1F (centres unmarked) [Example 347] | 3.28 | 83.2 (≈ 164 µM) | < 0.4 | 142 to 147 °C
30 | COc1cc(-c2cnc(C3CC(F)(F)C3)[nH]2)ccc1OCc1ncc(C(F)(F)F)cc1F [Example 348] | 1.76 | 89.6 (≈ 196 µM) | 22.4 (≈ 49 µM) | 105 to 110 °C
31 | COc1cc(OCc2ncc(C(F)(F)F)cc2F)ccc1-c1cnc(C2CC(F)(F)C2)[nH]1 [Example 349] | 2.2 | 83.6 (≈ 183 µM) | 10.8 (≈ 23.6 µM) | 70 to 75 °C
32 | Cc1cc(O)ccc1-c1cnc(-c2ccc(F)nc2)[nH]1 [Example 350] | 1.38 | 53.3 (≈ 198 µM) | 51 (≈ 189 µM) | 218 to 220 °C
